Measured values reported in the supplement of paper PMC10627819.

Experiments:
[1] = test system: B. subtilis 168; assay: fitness (endpoint OD595 vs no drug) (fraction); higher = more growth
Summary of the method: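 Bacterial growth was followed in 384-well plates seeded at OD595 0.01, with 30 µl per well, or 55 µl for S. pneumoniae, in TSB, LB Lennox or CY at 37 °C. OD595 was read every 30 min for 14 h, and each reading had the first reading subtracted as background. Fitness is the background-corrected optical density at entry into stationary phase divided by the robust mean of the no-drug control wells. This ratio is capped at 1.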

[2] = test system: B. subtilis 168; assay: Bliss interaction score (quartile over a dose matrix) (fitness difference); higher = more antagonism (negative = synergy)
Summary of the method: (§1)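 Fitness was derived from optical density at entry into stationary phase, divided by the robust mean of the no-drug wells on the same plate. That reading was taken as OD595, and the ratio was capped at 1. Single-drug fitness was inferred from the combination data. The Bliss score, observed fitness minus the expected product of single-drug fitness, was summarised as quartiles over technical, biological and donor/recipient replicates.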

[3] = test system: S. aureus DSM 20231; assay: as above
Summary of the method: as §1

[4] = test system: S. aureus Newman; assay: as above
Summary of the method: as §1

[5] = test system: S. pneumoniae D39V; assay: as above
Summary of the method: as §1
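Throughout, for Bliss interaction score (quartile over a dose matrix): first quartile when negative (synergy) and third quartile when positive (antagonism).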

O=C(O[C@@H]1Cc2c(O)cc(O)cc2O[C@@H]1c1cc(O)c(O)c(O)c1)c1cc(O)c(O)c(O)c1 [EGCG] + CO[C@@H]1[C@@H](OC(N)=O)[C@@H](O)[C@H](Oc2ccc3c(O)c(NC(=O)c4ccc(O)c(CC=C(C)C)c4)c(=O)oc3c2C)OC1(C)C [Novobiocin]
fitness, [1]
Conditions	first compound 6.25 µg/mL	first compound 12.5 µg/mL	first compound 25 µg/mL
partner 0.0125 µg/mL	0.968	0.643	0.253
partner 0.025 µg/mL	0.93	0.568	0.234
partner 0.05 µg/mL	0.9	–	0.29

fitness, [1], one replicate
Conditions	partner 0.1 µg/mL	partner 0.125 µg/mL	partner 0.2 µg/mL	partner 0.25 µg/mL	partner 0.5 µg/mL
first compound 6.25 µg/mL	0.949	0.92	0.896	0.875	0.563
first compound 12.5 µg/mL	0.756	0.69	0.759	0.522	0.194
first compound 25 µg/mL	0.546	0.213	0.541	0.223	0.207

Conditions	Bliss interaction score
[2]	-0.0765
[3]	0.0574
[4]	0.074
[5]	-0.0624

CCC[C@@H]1C[C@@H](C(=O)N[C@@H]([C@H]2O[C@H](SC)[C@H](O)[C@@H](O)[C@H]2O)[C@@H](C)O)N(C)C1 [Lincomycin] + CO[C@@H]1[C@@H](OC(N)=O)[C@@H](O)[C@H](Oc2ccc3c(O)c(NC(=O)c4ccc(O)c(CC=C(C)C)c4)c(=O)oc3c2C)OC1(C)C [Novobiocin]
fitness, [1]
Conditions	first compound 0.1 µg/mL	first compound 0.2 µg/mL	first compound 0.4 µg/mL
partner 0.0125 µg/mL	0.889	0.971	0.899
partner 0.025 µg/mL	0.879	0.894	0.845
partner 0.05 µg/mL	0.905	0.932	0.902

fitness, [1], one replicate
Conditions	first compound 0.1 µg/mL	first compound 0.2 µg/mL	first compound 0.4 µg/mL	first compound 0.8 µg/mL	first compound 1.6 µg/mL
partner 0.1 µg/mL	≥ 1	0.995	0.976	–	–
partner 0.125 µg/mL	–	–	0.836	0.883	0.88
partner 0.2 µg/mL	0.991	0.956	≥ 1	–	–
partner 0.25 µg/mL	–	–	0.809	0.848	0.819
partner 0.5 µg/mL	–	–	0.569	0.563	0.594

Conditions	Bliss interaction score
[2]	-0.0587
[3]	0.104
[4]	0.191
[5]	-0.0884
